Measured values reported in patent publication US7049289B1, “Labelled glutamine and lysine analogues” (Amersham PLC, priority 1998, dated 2006).
Entries after “also recorded” stand apart in the source; their conditions may differ. Where no end group is shown, it is not given here. code Z = not defined here

Assays:
[1] = Incorporation into clots induced in a rat model (rat inferior vena cava model); type: in vivo, rat (Male Wistar); settings: for % id/g (clot) / Rel. Conc. (cpm/g of clot by dose/g animal): sacrificed after 60 min
Procedure: The rats (Male Wistar, 250–350 g) were anaesthetised with 15% urethane. After laparotomy, the vena cava was isolated and freed of surrounding fat tissue. […] The compounds were injected 5 min (fresh clot) and 60 min (aged clot) post-induction. After 60 min the animals were sacrificed and the clot removed, weighed and counted. Other tissues e.g. blood, lung, heart, were also dissected and counted. The uptake of tracer into the clot was determined as the relative concentration (cpm/g of clot by dose/g animal) and clot to background tissue.

[2] = target: T1, fibrin (in vitro human plasma clot) (Homo sapiens, UniProt P02671+P02675+P02679); assay: Incorporation into human plasma clots in vitro; type: biochemical; settings: for % specific uptake: % retained (with thrombin) - % retained (no thrombin); for % retained (no thrombin): control without thrombin and calcium chloride (non-specific binding); for % retained (with thrombin): human plasma clot, 60 minutes, ca. 20° C.
T1 construct: about 400 μl of human plasma containing the radiolabelled substrate; from tissue; host or cells: human plasma, clotted in vitro with added thrombin and calcium chloride
T1 sequence (P02671 20-644 isoform P02671-2 limits assumed): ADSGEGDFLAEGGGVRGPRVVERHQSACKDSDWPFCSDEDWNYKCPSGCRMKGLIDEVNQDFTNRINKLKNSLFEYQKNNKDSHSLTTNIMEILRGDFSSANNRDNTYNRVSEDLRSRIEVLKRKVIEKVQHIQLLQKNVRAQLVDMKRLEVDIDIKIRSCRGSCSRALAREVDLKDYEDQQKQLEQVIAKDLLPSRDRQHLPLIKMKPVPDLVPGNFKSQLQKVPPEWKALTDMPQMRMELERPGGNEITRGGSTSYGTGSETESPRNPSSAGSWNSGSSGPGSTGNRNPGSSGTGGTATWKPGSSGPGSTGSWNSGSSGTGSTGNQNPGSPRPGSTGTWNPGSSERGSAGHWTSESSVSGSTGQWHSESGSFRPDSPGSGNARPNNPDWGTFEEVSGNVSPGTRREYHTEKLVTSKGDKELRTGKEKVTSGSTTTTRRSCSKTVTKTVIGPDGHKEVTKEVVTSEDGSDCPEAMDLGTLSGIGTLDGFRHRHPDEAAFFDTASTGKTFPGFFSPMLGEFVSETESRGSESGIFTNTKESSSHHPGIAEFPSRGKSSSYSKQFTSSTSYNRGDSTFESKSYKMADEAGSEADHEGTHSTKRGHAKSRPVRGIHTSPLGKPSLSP
T1 sequence (P02675 45-491 limits assumed): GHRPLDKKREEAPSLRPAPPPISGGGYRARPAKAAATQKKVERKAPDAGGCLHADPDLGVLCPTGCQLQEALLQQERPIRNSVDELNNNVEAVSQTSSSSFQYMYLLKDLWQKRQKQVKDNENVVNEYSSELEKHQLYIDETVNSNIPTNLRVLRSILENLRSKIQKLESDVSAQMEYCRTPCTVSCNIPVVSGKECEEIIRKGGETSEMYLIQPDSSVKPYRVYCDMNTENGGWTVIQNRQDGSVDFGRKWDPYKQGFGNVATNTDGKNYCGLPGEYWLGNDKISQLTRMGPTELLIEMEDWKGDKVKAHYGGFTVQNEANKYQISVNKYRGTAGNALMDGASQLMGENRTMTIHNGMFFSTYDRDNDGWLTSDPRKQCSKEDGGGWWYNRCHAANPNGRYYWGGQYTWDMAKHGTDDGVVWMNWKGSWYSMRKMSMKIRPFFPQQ
T1 sequence (P02679 27-437 isoform P02679-2 limits assumed): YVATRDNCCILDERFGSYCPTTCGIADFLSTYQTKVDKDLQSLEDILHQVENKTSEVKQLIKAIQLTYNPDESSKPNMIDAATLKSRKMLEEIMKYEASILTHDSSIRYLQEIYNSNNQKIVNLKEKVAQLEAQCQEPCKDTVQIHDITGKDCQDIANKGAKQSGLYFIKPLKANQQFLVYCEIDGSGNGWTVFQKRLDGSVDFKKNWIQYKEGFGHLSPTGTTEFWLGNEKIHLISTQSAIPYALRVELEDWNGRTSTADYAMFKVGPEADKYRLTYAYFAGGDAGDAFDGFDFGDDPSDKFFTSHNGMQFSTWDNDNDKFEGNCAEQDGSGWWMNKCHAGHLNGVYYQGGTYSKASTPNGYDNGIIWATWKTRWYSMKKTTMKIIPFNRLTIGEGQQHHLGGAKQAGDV
Procedure: Incorporation of radiolabelled substrates into fibrin was investigated by induction of an in vitro human plasma clot in the following manner. To a siliconised 5 ml glass vial was added, (a) 800 μl of Tris(hydroxymethyl)aminomethane buffered saline pH 7.5 containing calcium chloride (50 mM Tris, 150 mM sodium chloride, 4 mM calcium chloride.), (b) about 40 μl of physiological salt solution containing 100 units of thrombin per ml, (c) about 400 μl of human plasma containing the radiolabelled substrate at a concentration of typically 10 kBq/ml. To aid induction of clot a roughened glass rod was added to the reaction vial. Control vials were prepared similarly but with the omission of thrombin and calcium chloride.
After incubation of the test solution at ambient laboratory temperature (ca. 20° C.) for 60 minutes the reaction was discontinued with the addition of about 400 μl of a cold solution of 33.5 mM ethylenediaminetetra-acetic acid disodium salt. Clots were separated from serum by vacuum filtration onto […] nitrocellulose filters (pre-soaked in 1.5% BSA/tris(hydroxymethyl)aminoethae buffered saline pH 7.5 containing 0.1% Tween 20) and washed with about 2×10 ml of tris(hydroxymethyl)aminomethane buffered saline pH 7.5 containing Tween 20 to a final concentration of 0.1% v/v. The proportion of total radioactivity was calculated by counting in suitable detection apparatus.
The fraction of radioactivity retained on the filter, after subtraction of the non-specific binding determined from the control, is a measure of incorporation into the filtered clots.

[3] = Aged Clots: injected 60 min post-induction
[4] = Fresh Clots: injected 5 min post-induction

Row | Substance | % specific uptake [2] [%] | % retained (no thrombin) [2] [%] | % retained (with thrombin) [2] [%] | in vitro clot uptake (in words) [2] | Clot/blood ([1]; Aged Clots) | Clot/heart ([1]; Aged Clots) | Clot/liver ([1]; Aged Clots) | Clot/lung ([1]; Aged Clots) | % id/g (clot) [1, 3] [% id/g] | Rel. Conc. (cpm/g of clot by dose/g animal) [1, 3] | Clot/blood ([1]; Fresh Clots) | Clot/heart ([1]; Fresh Clots) | Clot/liver ([1]; Fresh Clots) | Clot/lung ([1]; Fresh Clots) | % id/g (clot) [1, 4] [% id/g] | Rel. Conc. (cpm/g of clot by dose/g animal) [1, 4]
1 | Ac-NQEQVSP-Nal(2)-TLLKG-Pn216 [^99mTc-Cmpd 20] | 62.4 | 2.6 | 65.0 |  | 10 | 36 | 23 | 14 | 1.7 ± 0.5 | 4.9 ± 1.4 | 12 | 30 | 18 | 11 | 2.3 ± 0.6 | 6.5 ± 1.3
2 | Z-NQEQVSP(I-Y)TLLKG-Pn216 [^99mTc-Cmpd 24] | 56.4 | 0.4 | 56.8 |  | 15 | 40 | 37 | 20 | 4.1 ± 2.5 | 11.9 ± 8.0 | 10 | 21 | 11 | 10 | 4.0 ± 2.2 | 11.1 ± 6.7
3 | Ac-NQEQVSP(D-Y)TLL(D-K)G-Pn216 [^99mTc-Cmpd 29] | 21.0 | 0.1 | 21.1 |  | 11 | 67 | 29 | 30 | 3.8 ± 0.4 | 10.0 ± 1.7 | 14 | 44 | 44 | 20 | 4.7 ± 1.9 | 13.0 ± 4.9
4 | Ac-NAEAVSPYTLLKG-Pn216 (also: 99mTc complex) [^99mTc-Cmpd 14] | 2.8 | 0.5 | 3.3 | significant reduction in uptake; also recorded: large drop in uptake | 1.4 | 2 | 0.7 | 1.3 | 0.6 ± 0.4 | 1.4 ± 0.8 | 2 | 3 | 0.7 | 1.5 | 0.5 ± 0.1 | 1.2 ± 0.2
5 | Ac-NQEQVSP(I-Y)TLLKG-Pn216 [^99mTc-Cmpd 22] | 58.7 | 0.3 | 59.0 |  | 11 | 3 | 4 | 1 | 6.9 ± 2.5 | 22.7 ± 7.4 | 11 | 28 | 25 | 13 | 3.8 ± 1.6 | 13.0 ± 5.5
6 | NQEQVSPYTLLKG-Pn216 (also: 99mTc complex) [^99mTc-Cmpd 6] | 64.3 | 4.3 | 68.6 |  |  |  |  |  |  |  |  |  |  |  |  | 
7 | Z-NQEQVSPYG-Pn216 ({code Z}-NQEQVSPYG-Pn216; reading uncertain; also: 99mTc complex, printed as Z-NQEQVSPYG-Pn216) [^99mTc-Cmpd 18] | 9.7 | 0.1 | 9.8 | significant reduction in uptake |  |  |  |  |  |  |  |  |  |  |  | 
8 | Z-NQEQVSP(I2-Y)TLLKG-Pn216 [^99mTc-Cmpd 25] | 63.7 | 4.3 | 68.0 |  |  |  |  |  |  |  |  |  |  |  |  | 

Second part, led by results:

Row | % specific uptake [2] [%] | % retained (no thrombin) [2] [%] | % retained (with thrombin) [2] [%] | in vitro clot uptake (in words) [2] | Substance | Clot/blood ([1]; Aged Clots) | Clot/heart ([1]; Aged Clots) | Clot/liver ([1]; Aged Clots) | Clot/lung ([1]; Aged Clots) | % id/g (clot) [1, 3] [% id/g] | Rel. Conc. (cpm/g of clot by dose/g animal) [1, 3] | Clot/blood ([1]; Fresh Clots) | Clot/heart ([1]; Fresh Clots) | Clot/liver ([1]; Fresh Clots) | Clot/lung ([1]; Fresh Clots) | % id/g (clot) [1, 4] [% id/g] | Rel. Conc. (cpm/g of clot by dose/g animal) [1, 4]
9 | 6.1 | 0.2 | 6.3 | significant reduction in uptake | p-EAQIVG-Pn44 [^99mTc-Cmpd 46] | 4 | 5 | 1 | 3 | 0.5 ± 0.2 | 1.3 ± 0.6 | 5 | 6 | 1 | 3 | 0.8 ± 0.4 | 2.0 ± 0.7
10 | 63.8 | 0.1 | 63.9 |  | Ac-NQEQVSP(D-Y)TLL(D-K)βAla-Pn216 [^99mTc-Cmpd 33] | 16 | 24 | 16 | 9 | 2.2 ± 0.6 | 6.7 ± 1.6 | 11 | 32 | 28 | 16 | 2.7 ± 0.2 | 7.8 ± 0.6
11 | 5.4 | 0.1 | 5.5 | significant reduction in uptake | Ac-N—CH2NH2-QEQVSP(D-Y)TLL(D-K)G-Pn216 [^99mTc-Cmpd 34] | 3 |  | 6 |  | 0.4 ± 0.1 | 1.4 ± 0.4 | 2 | 6 | 8 | 3 | 0.5 ± 0.2 | 1.8 ± 0.5
12 | 13.2 | 0.1 | 13.3 |  | Ac-NQEQVSPYTLLKG-(PEG)3.4k-Pn44 (Ac-NQEQVSPYTLLKG-{PEG 3.4k-Pn44}; also: 99mTc complex) [^99mTc-Cmpd 40] |  |  |  |  |  |  |  |  |  |  |  | 
13 | 14.7 | 0.2 | 14.9 |  | Ac-NQEQV(D-S)P(D-Y)TLL(D-K)G-Pn216 [^99mTc-Cmpd 30] |  |  |  |  |  |  |  |  |  |  |  | 
